Source: US7655756B2 (Johnson & Johnson Pharmaceutical Research & Development, LLC, priority 2005, dated 2010)
Entries after “also recorded” stand apart in the source; their conditions may differ.

Experiments:
[1] = biological target: T1, ERRα (Homo sapiens, UniProt P11474); assay: ThermoFluor thermal shift assay, ERRα; type: binding; settings: 100 μM test compound, 0.1 mg/mL protein, 25 mM HEPES pH 8.0, 25 μM ANS, 2% DMSO, Tm free protein 54.4 °C
T1 sequence (P11474 193-421 limits assumed): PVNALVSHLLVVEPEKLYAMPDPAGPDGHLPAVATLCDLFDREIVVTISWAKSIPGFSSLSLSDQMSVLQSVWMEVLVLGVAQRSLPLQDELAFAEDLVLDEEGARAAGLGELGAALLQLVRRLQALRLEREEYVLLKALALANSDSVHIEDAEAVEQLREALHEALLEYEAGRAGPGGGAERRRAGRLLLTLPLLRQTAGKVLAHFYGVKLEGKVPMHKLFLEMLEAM

[2] = biological target: T2, ERRβ (Homo sapiens, UniProt O95718); assay: ThermoFluor thermal shift assay, ERRβ; type: binding
T2 sequence (O95718 208-432 limits assumed): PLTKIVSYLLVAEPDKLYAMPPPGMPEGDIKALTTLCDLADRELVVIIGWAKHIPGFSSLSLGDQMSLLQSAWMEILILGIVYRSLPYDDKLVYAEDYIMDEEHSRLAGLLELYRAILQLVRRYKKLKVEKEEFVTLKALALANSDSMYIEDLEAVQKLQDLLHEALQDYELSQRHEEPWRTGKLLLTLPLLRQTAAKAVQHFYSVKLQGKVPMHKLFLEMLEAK

[3] = biological target: T3, ERα (Homo sapiens, UniProt P03372); assay: ThermoFluor thermal shift assay, ERα; type: binding
T3 sequence (P03372 1-595): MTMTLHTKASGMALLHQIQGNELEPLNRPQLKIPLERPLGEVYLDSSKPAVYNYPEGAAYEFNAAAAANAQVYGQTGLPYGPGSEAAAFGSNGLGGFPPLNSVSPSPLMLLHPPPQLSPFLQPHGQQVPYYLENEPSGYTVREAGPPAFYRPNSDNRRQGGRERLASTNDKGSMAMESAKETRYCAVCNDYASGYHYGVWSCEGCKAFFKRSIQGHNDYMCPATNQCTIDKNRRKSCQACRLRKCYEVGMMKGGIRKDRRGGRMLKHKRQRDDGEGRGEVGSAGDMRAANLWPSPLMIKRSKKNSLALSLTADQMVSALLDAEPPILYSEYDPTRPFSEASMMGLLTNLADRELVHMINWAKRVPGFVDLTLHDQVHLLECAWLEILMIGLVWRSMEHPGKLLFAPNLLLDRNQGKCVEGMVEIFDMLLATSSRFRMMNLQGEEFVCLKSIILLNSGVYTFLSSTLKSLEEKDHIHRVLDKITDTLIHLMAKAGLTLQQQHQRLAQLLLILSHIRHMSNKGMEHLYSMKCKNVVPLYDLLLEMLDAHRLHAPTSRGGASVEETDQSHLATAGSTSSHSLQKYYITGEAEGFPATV

[4] = biological target: ERβ (Homo sapiens, UniProt Q92731); assay: ThermoFluor thermal shift assay, ERβ; type: binding; settings: 100 μM test compound; 0.1 mg/mL protein, 25 mM HEPES pH 8.0; Tm free protein 41.1 °C; read-out: ΔTm, thermal stabilization of ERβ
[5] = biological target: T4, ERRγ-SRC2 complex (Homo sapiens, UniProt P62508); assay: TR-FRET co-activator recruitment assay; type: biochemical
T4 construct: made in house; host or cells: E. coli BL21(DE3) (ERRγ LBD)
T4 sequence (P62508 229-458): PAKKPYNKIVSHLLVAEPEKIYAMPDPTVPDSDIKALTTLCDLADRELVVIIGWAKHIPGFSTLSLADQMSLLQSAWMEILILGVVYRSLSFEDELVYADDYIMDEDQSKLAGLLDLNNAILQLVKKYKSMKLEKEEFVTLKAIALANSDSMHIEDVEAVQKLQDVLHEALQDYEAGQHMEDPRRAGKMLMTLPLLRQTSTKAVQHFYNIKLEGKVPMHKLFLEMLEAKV
Description: For FRET measurements, the reaction was buffered in 25 mM Tris pH 8, 2.5 mM Hepes, 20 mM KCl, 1 mM DTT, and 0.05 mg/mL delipidated BSA.
Time-resolved Fluorescence resonance energy transfer (FRET) experiments were performed to examine the functional response of ERRγ ligands.
For FRET measurements, the reaction was buffered in 25 mM Tris pH 8, 2.5 mM Hepes, 20 mM KCl, 1 mM DTT, and 0.05 mg/mL BSA (-lipids). […] Reactions were allowed to reach equilibrium at 25° C. for 4-18 hours before collecting data on the Analyst from LJL Biosystems (Molecular Devices Sunnyvale, Calif.). […] Dose response curves were fitted using a hyperbolic equation and the data reported is the average of three independent experiments.

[6] = biological target: T5, ERRγ (Homo sapiens, UniProt P62508); assay: Isothermal titration calorimetry; type: binding
T5 construct: 6His; made in house; host or cells: E. coli BL21(DE3)
T5 sequence (P62508 229-458): T4 sequence (P62508 229-458)
Description: The heat of interaction of the ligands with ERRγ molecules was measured by using the Omega titration calorimeter from Microcal Inc. In a typical titration, 1.4 mL of a 20 μM protein solution is titrated with a ligand solution of ˜0.4 mM concentration using a 100 μL syringe by ˜20 injections of 5-6 μL each. This syringe is also used to mix the reactants completely in the sample cell by rotating it at 400 rpm. For each injection, the area under the resulting peak is proportional to the heat of interaction, Q. Once this heat is corrected for the titrant dilution and normalized by the titrant solution concentration it becomes equal to the binding enthalpy, ΔHb, under nonsaturating conditions. The precision of the heat of each injection is about 0.5 μcal. One method of determining ΔHb is to average several intermediate peaks from the different sites. In addition to the binding enthalpies, one can obtain binding affinities, and overall stoichiometries of the complexes. The experimental calorimetric binding isotherm is the dependence of the total heat, Qr, (or dQrldX T) on the total concentration of ligand added, Xr. The above three parameters for each type of site are determined iteratively using the Marquardt algorithms as described previously.

[7] = tested on: pBIND-Gal4-ERRγ; assay: Cell based reporter (trans-activation) assay in HEK293E cells; settings: luciferase reporter, Gal4-ERRγ and pACT-SRC2, 24 hours of compound treatment
Description: A cell based reporter assay was used to determine the functional response of the ERRγ hits. Transfections were performed in HEK293E cells that were maintained in DMEM supplemented in glutamine and 10% FBS. Co-transfections of 4 μg of a luciferase reporter plasmid and 4 μg of each pBIND-Gal4-ERRγ and pACT-SRC2 plasmids per T-75 flask were done using Lipofectamine as per manufacturers instructions. Twenty-four hours post-transfection, the cells were seeded in 96-well plates at density of 50,000 cells per well in assay media (DMEM phenol free, 5% charcoal stripped FBS). […] After 24 hours of compound treatment, cells were lysed and treated with the Promega Dual-Glo system. Firefly Luciferase activity was read using a luminescence plate reader, and data were normalized against Renilla luciferase activity. Data were fitted using subroutines available from GraphPad.

[8] = biological target: T6, ligand binding domain of ERRγ (Homo sapiens, UniProt P62508); assay: Thermal denaturation monitored by CD spectroscopy; settings: data not shown
T6 construct: 6His; made in house; host or cells: E. coli BL21(DE3)
T6 sequence (P62508 229-458): T4 sequence (P62508 229-458)
Excerpt: Ligand binding energy adds directly to the ground state energy of a macromolecule and results in increased thermal stability. The degree of stabilization is proportional to the binding affinity of the ligand for the macromolecule.

Chain of ERβ (Q92731 whole entry, species assumed): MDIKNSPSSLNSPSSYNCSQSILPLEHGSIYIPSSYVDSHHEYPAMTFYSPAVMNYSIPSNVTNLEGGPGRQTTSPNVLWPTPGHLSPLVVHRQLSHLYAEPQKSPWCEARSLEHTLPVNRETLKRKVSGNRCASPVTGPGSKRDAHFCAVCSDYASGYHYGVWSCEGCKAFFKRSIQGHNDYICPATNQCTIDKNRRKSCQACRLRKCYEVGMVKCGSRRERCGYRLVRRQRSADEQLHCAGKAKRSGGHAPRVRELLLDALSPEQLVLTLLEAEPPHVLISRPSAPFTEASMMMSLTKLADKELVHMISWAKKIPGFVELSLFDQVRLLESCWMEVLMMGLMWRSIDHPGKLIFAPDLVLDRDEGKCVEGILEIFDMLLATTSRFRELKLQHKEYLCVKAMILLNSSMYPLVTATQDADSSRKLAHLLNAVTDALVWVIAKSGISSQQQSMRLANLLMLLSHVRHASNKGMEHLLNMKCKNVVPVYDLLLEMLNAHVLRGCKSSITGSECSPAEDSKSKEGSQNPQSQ

| ΔTm at 100 µM ([1]; read-out: ΔTm, thermal stabilization of ERRα) [°C] | ΔTm at 100 µM ([2]; 100 μM test compound, 0.1 mg/mL protein, 25 mM HEPES pH 8.0, Tm free protein 47.5 °C, read-out: ΔTm, thermal stabilization of ERRβ) [°C] | ΔTm at 100 µM ([3]; 100 μM test compound, 0.1 mg/mL protein, 25 mM HEPES pH 8.0, Tm free protein 39.1 °C, read-out: ΔTm, thermal stabilization of ERα) [°C] | ΔTm at 100 µM [4] [°C] | Enhancement in the affinity of the receptor for co-activator peptide fragments, in words [5] | Kd ([6]; 20 μM protein titrated with ~0.4 mM ligand, read-out: Binding affinity by isothermal titration calorimetry) [nM] | Binding enthalpy ΔHb ([6]; isothermal titration calorimetry) [kcal/mol] | Molecule | Displacement of co-activator peptide from ERRγ (antagonism), in words ([5]; 6 nM ERRγ LBD, 6 nM GST-SRC-2 peptide) | Change in transcriptional activity in trans-activation cellular assay, in words [7] | ΔTm, thermal stabilization of ERRα [1] [°C] | ΔTm, thermal stabilization of ERRβ ([2]; 100 μM test compound, 0.1 mg/mL protein, 25 mM HEPES pH 8.0, Tm free protein 47.5 °C) [°C] | Kd ([2]; calculated at reference temperature 25 °C from ΔTm of Table II, ΔHu 155 kcal/mol, read-out: Estimated dissociation constant, ERRβ) [nM] | ΔTm, thermal stabilization of ERα ([3]; pH 8) [°C] | Thermal stabilization of ERRγ by loss of α-helicity (CD), in words [8] |
| --- | --- | --- | --- | --- | --- | --- | --- | --- | --- | --- | --- | --- | --- | --- |
| 0 | -0.1 | 4.4 | 7.4 | not able to demonstrate | 70 | ~-21 | CC(C)(c1ccc(O)cc1)c1ccc(O)cc1 [BPA, bisphenol A] | ineffective; also recorded: neither ligand displaced co-activator peptide | not able to demonstrate | – | – | – | – | – |
| – | – | – | – | – | – | – | 4-hydroxytamoxifen [4OHT] | – | – | −0.1 | 2.15 | 2640 | 17.1 | positive thermal stabilization |
